Test results published in the NIST ThermoML archive (doi:10.1021/je900732r).
Numbers after ± are expanded uncertainties.

Experiment: mn = molality of the nth substance listed, in mol/kg
Conditions: 101 kPa, Liquid; for speed of sound: Pulse-echo method

[Ni+2].[O-][Cl+3]([O-])([O-])[O-].[O-][Cl+3]([O-])([O-])[O-] [nickel perchlorate] + CO
Conditions	mass density, 283.15 K [kg/m3]	mass density, 288.15 K [kg/m3]	mass density, 293.15 K [kg/m3]	mass density, 298.15 K [kg/m3]	mass density, 303.15 K [kg/m3]	mass density, 308.15 K [kg/m3]	mass density, 313.15 K [kg/m3]	speed of sound, 298.15 K [m/s]
m1 = 0.04976	810.894 ± 0.47	806.238 ± 0.48	801.564 ± 0.48	796.875 ± 0.49	792.174 ± 0.5	787.453 ± 0.51	782.702 ± 0.51	1108.7 ± 0.6
m1 = 0.06138	813.322 ± 0.47	808.669 ± 0.47	804 ± 0.48	799.318 ± 0.49	794.619 ± 0.49	789.897 ± 0.5	785.142 ± 0.51	1110.3 ± 0.6
m1 = 0.07317	815.812 ± 0.46	811.165 ± 0.47	806.497 ± 0.48	801.821 ± 0.48	797.126 ± 0.49	792.41 ± 0.5	787.658 ± 0.51	1111.9 ± 0.6
m1 = 0.08448	818.152 ± 0.46	813.508 ± 0.47	808.845 ± 0.47	804.169 ± 0.48	799.474 ± 0.49	794.767 ± 0.49	790.033 ± 0.5	1113.4 ± 0.6
m1 = 0.09669	820.699 ± 0.46	816.056 ± 0.47	811.401 ± 0.47	806.731 ± 0.48	802.044 ± 0.49	797.34 ± 0.49	792.608 ± 0.5	1115.2 ± 0.61
m1 = 0.1085	823.23 ± 0.46	818.592 ± 0.46	813.937 ± 0.47	809.271 ± 0.47	804.589 ± 0.48	799.878 ± 0.49	795.147 ± 0.5	1116.7 ± 0.61
m1 = 0.1208	825.801 ± 0.45	821.168 ± 0.46	816.518 ± 0.47	811.856 ± 0.47	807.179 ± 0.48	802.481 ± 0.48	797.759 ± 0.49	1118.3 ± 0.61
m1 = 0.1447	830.859 ± 0.45	826.231 ± 0.45	821.586 ± 0.46	816.93 ± 0.47	812.261 ± 0.47	807.568 ± 0.48	802.853 ± 0.49	1121.7 ± 0.62
m1 = 0.1676	835.774 ± 0.44	831.151 ± 0.45	826.515 ± 0.45	821.865 ± 0.46	817.198 ± 0.47	812.514 ± 0.47	807.813 ± 0.48	1124.8 ± 0.62
m1 = 0.1901	840.657 ± 0.44	836.042 ± 0.44	831.412 ± 0.45	826.771 ± 0.46	822.114 ± 0.46	817.44 ± 0.47	812.739 ± 0.47	1127.8 ± 0.62
m1 = 0.2123	845.469 ± 0.43	840.858 ± 0.44	836.233 ± 0.44	831.599 ± 0.45	826.95 ± 0.46	822.28 ± 0.46	817.588 ± 0.47	1130.6 ± 0.63
m1 = 0.2356	850.636 ± 0.43	846.033 ± 0.43	841.413 ± 0.44	836.783 ± 0.45	832.14 ± 0.45	827.476 ± 0.46	822.785 ± 0.46	1134.2 ± 0.63
